Results as given in patent publication US8399681B2, “Substituted aminothiazolone indazoles as estrogen related receptor-alpha modulators” (Janssen Pharmaceutica NV, priority 2009, dated 2013).

Target: T1, ERR1 (also known as ERR-α or ERR-1) (Homo sapiens, UniProt P11474)
T1 sequence (P11474 193-421 limits assumed): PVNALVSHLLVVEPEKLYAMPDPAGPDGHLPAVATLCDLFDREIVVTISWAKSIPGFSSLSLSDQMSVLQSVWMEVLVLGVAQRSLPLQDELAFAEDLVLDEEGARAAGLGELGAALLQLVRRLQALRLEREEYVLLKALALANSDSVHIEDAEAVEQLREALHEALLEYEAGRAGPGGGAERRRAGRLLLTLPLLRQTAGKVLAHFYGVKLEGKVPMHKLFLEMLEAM
Test: TR-FRET assay (disruption of co-activator peptide binding)
Assay type: biochemical
Settings: 6His-tagged ERR1 LBD, GST-hSRC2 co-activator polypeptide; average of 3 independent experiments
Method: Time-Resolved Fluorescence Resonance Energy Transfer (TR-FRET) experiments were performed to examine the functional response of ERR1 (also known as ERR-α or ERR-1) ligands. The TR-FRET assay described herein relied on the conformation of ERR1 for binding to a co-activator peptide: when a test compound binds to ERR1 and alters its conformation, it can disrupt the binding of the co-activator peptide. The components of this homogeneous secondary assay included: the ^6His-tagged-ERR1LBD, a GST-labeled-hSRC2 co-activator polypeptide and a fluorescent donor/acceptor pair from CIS bio international htrf/bioassays (Bedford, Mass.) using both an α-GST Europium Cryptate (Eu) label and an α^6His-XL665 (allophycocyanin) fluorophore.
For TR-FRET measurements, the reaction was buffered in 25 mM Tris pH 8, 2.5 mM Hepes, 20 mM KCl, 1 mM DTT, and 0.05 mg/mL BSA (-lipids). The final concentrations of reagents were 6 nM of ERR1LBD, 6 nM GST-SRC-2 peptide, 30 nM Eu cryptate, and 7.5 nM XL665. Reactions were allowed to reach equilibrium at 25° C. for 4-18 hours before collecting data on the Analyst from LJL Biosystems (Molecular Devices Sunnyvale, Calif.). As a time-resolved method, the samples were excited at […] and emission was collected for 1 ms at both 615 and 665 nm with delays of 400 and 75 μs, respectively. Dose response curves were fitted using a hyperbolic equation and the data reported is the average of 3 independent experiments.

Row | EC50 | SMILES
1 | 4 nM | C[C@@H]1CN(C2=NC(=O)/C(=C/c3ccc4c(cnn4Cc4ccc(Cl)cc4C(F)(F)F)c3)S2)C[C@H](C)N1 [Example 241, 5-({1-[4-Chloro-2-(trifluoromethyl)benzyl]-1H-indazol-5-yl}methylidene)-2-((3R,5S)-3,5-dimethylpiperazin-1-yl)-1,3-thiazol-4(5H)-one]
2 | 35 nM | O=C1N=C(N2CCC(n3cccn3)CC2)S/C1=C\c1ccc2c(cnn2Cc2ccc(Cl)cc2C(F)(F)F)c1 [Example 157, 5-[1-(4-Chloro-2-trifluoromethyl-benzyl)-1H-indazol-5-ylmethylene]-2-(4-pyrazol-1-yl-piperidin-1-yl)-thiazol-4-one]
3 | 450 nM | CS(=O)(=O)c1ccc(Cn2ncc3cc(/C=C4\SC(N5CCN(CCO)CC5)=NC4=O)ccc32)c(C(F)(F)F)c1 [Compound 16, 2-[4-(2-Hydroxy-ethyl)-piperazin-1-yl]-5-[1-(4-methanesulfonyl-2-trifluoromethyl-benzyl)-1H-indazol-5-ylmethylene]-thiazol-4-one]
4 | 18 nM | O=C1N=C(N2C[C@H](O)[C@@H](N3CCOCC3)C2)S/C1=C\c1ccc2c(cnn2Cc2ccc(C(F)(F)F)cc2C(F)(F)F)c1 [Example 225, (5Z)-5-({1-[2,4-Bis(trifluoromethyl)benzyl]-1H-indazol-5-yl}methylidene)-2-[(3S,4S)-3-hydroxy-4-morpholin-4-ylpyrrolidin-1-yl]-1,3-thiazol-4(5H)-one]
5 | 35 nM | CONC(=O)C1CN(C2=NC(=O)/C(=C/c3ccc4c(cnn4Cc4ccc(C(F)(F)F)cc4C(F)(F)F)c3)S2)CCN1 (centres unmarked) [Example 272, 4-[5-({1-[2,4-Bis(trifluoromethyl)benzyl]-1H-indazol-5-yl}methylidene)-4-oxo-4,5-dihydro-1,3-thiazol-2-yl]-N-methoxypiperazine-2-carboxamide]
6 | 27 nM | CS(=O)(=O)NC1CCN(C2=NC(=O)/C(=C/c3ccc4c(cnn4Cc4ccc(C(F)(F)F)cc4C(F)(F)F)c3)S2)CC1 [Example 120, N-(1-{5-[1-(2,4-Bis-trifluoromethyl-benzyl)-1H-indazol-5-ylmethylene]-4-oxo-4,5-dihydro-thiazol-2-yl}-piperidin-4-yl)-methanesulfonamide]
7 | 23 nM | CN1CCN(C2=NC(=O)/C(=C/c3ccc4c(cnn4Cc4ccc(C(F)(F)F)cc4C(F)(F)F)c3)S2)CC1(C)C [Example 219, 5-({1-[2,4-Bis(trifluoromethyl)benzyl]-1H-indazol-5-yl}methylidene)-2-(3,3,4-trimethylpiperazin-1-yl)-1,3-thiazol-4(5H)-one]
8 | 49 nM | NC1CN(C2=NC(=O)/C(=C/c3ccc4c(cnn4Cc4ccc(Cl)cc4C4CC4)c3)S2)C1 [Example 92, 2-(3-Amino-azetidin-1-yl)-5-[1-(4-chloro-2-cyclopropyl-benzyl)-1H-indazol-5-ylmethylene]-thiazol-4-one]
9 | 48 nM | O=C1N=C(N2CCC(n3cnnn3)CC2)S/C1=C\c1ccc2c(cnn2Cc2ccc(Cl)cc2C(F)(F)F)c1 [Example 150, 5-[1-(4-Chloro-2-trifluoromethyl-benzyl)-1H-indazol-5-ylmethylene]-2-(4-tetrazol-1-yl-piperidin-1-yl)-thiazol-4-one]
10 | 15 nM | O=C1N=C(N2CCC(O)(C(=O)O)CC2)S/C1=C\c1ccc2c(cnn2Cc2ccc(C(F)(F)F)cc2C(F)(F)F)c1 [Example 269, 1-[5-({1-[2,4-Bis(trifluoromethyl)benzyl]-1H-indazol-5-yl}methylidene)-4-oxo-4,5-dihydro-1,3-thiazol-2-yl]-4-hydroxypiperidine-4-carboxylic acid]

Row | SMILES | EC50
11 | CN1C[C@H]2CC[C@@H](C1)N2C1=NC(=O)/C(=C/c2ccc3c(cnn3Cc3ccc(C(F)(F)F)cc3C(F)(F)F)c2)S1 [Example 86, 5-[1-(2,4-Bis-trifluoromethyl-benzyl)-1H-indazol-5-ylmethylene]-2-(3-methyl-3,8-diaza-bicyclo[3.2.1]oct-8-yl)-thiazol-4-one] | 20 nM
